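Method: 48-hour compound exposure of cells in 96-well plates, five concentrations, linear interpolation of endpoints. Abbreviation: GI50, concentration required for 50% inhibition of growth. TGI is the concentration that stops growth completely.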 Where a SMILES comes first, the peptide text is derived from it. [ ]: non-standard residue; d: D form. The star is where a group is joined. Nle = CCCC[C@H](N)C(=O)O; Cbz = O=C(OCc1ccccc1)*
Tests used:
Test in all cases: NCI anticancer screen, dose series, 48 h
786-0 renal = tested on: 786-0 renal
A498 renal = tested on: A498 renal
A549 NSCLC = tested on: A549 NSCLC
ACHN renal = tested on: ACHN renal
BT-549 breast = tested on: BT-549 breast
CAKI-1 renal = tested on: CAKI-1 renal
CCRF-CEM leukemia = tested on: CCRF-CEM leukemia
COLO 205 colon = tested on: COLO 205 colon
DU-145 prostate = tested on: DU-145 prostate
EKVX NSCLC = tested on: EKVX NSCLC
HCC-2998 colon = tested on: HCC-2998 colon
HCT-116 colon = tested on: HCT-116 colon
HCT-15 colon = tested on: HCT-15 colon
HL-60(TB) leukemia = tested on: HL-60(TB) leukemia
HOP-62 NSCLC = tested on: HOP-62 NSCLC
HOP-92 NSCLC = tested on: HOP-92 NSCLC
HS 578T breast = tested on: HS 578T breast
HT29 colon = tested on: HT29 colon
IGROV1 ovarian = tested on: IGROV1 ovarian
K-562 leukemia = tested on: K-562 leukemia
KM12 colon = tested on: KM12 colon
LOX IMVI melanoma = tested on: LOX IMVI melanoma
M14 melanoma = tested on: M14 melanoma
MALME-3M melanoma = tested on: MALME-3M melanoma
MCF7 breast = tested on: MCF7 breast
MDA-MB-231 breast = tested on: MDA-MB-231 breast
MDA-MB-435 = tested on: MDA-MB-435
MOLT-4 leukemia = tested on: MOLT-4 leukemia
NCI-H226 lung = tested on: NCI-H226 lung
NCI-H23 lung = tested on: NCI-H23 lung
NCI-H460 lung = tested on: NCI-H460 lung
NCI-H522 lung = tested on: NCI-H522 lung
NCI/ADR-RES ovarian = tested on: NCI/ADR-RES ovarian
OVCAR-3 ovarian = tested on: OVCAR-3 ovarian
OVCAR-4 ovarian = tested on: OVCAR-4 ovarian
OVCAR-5 ovarian = tested on: OVCAR-5 ovarian
OVCAR-8 ovarian = tested on: OVCAR-8 ovarian
PC-3 prostate = tested on: PC-3 prostate
RPMI-8226 leukemia = tested on: RPMI-8226 leukemia
RXF 393 renal = tested on: RXF 393 renal
SF-268 CNS = tested on: SF-268 CNS
SF-295 CNS = tested on: SF-295 CNS
SF-539 CNS = tested on: SF-539 CNS
SK-MEL-2 melanoma = tested on: SK-MEL-2 melanoma
SK-MEL-28 melanoma = tested on: SK-MEL-28 melanoma
SK-MEL-5 melanoma = tested on: SK-MEL-5 melanoma
SK-OV-3 ovarian = tested on: SK-OV-3 ovarian
SNB-19 CNS = tested on: SNB-19 CNS
SR leukemia = tested on: SR leukemia
SW-620 colon = tested on: SW-620 colon
T-47D breast = tested on: T-47D breast
TK-10 renal = tested on: TK-10 renal
U251 CNS = tested on: U251 CNS
UACC-257 melanoma = tested on: UACC-257 melanoma
UACC-62 melanoma = tested on: UACC-62 melanoma
UO-31 renal = tested on: UO-31 renal

SMILES: CCCC[C@@H](C=O)NC(=O)[C@H](CC(C)C)NC(=O)[C@H](CC(C)C)NC(=O)OCc1ccccc1 (Cbz-Leu-Leu-[Nle]-aldehyde)
- GI50 (786-0 renal): 0.243 µM
- TGI (786-0 renal): 1.41 µM
- GI50 (A498 renal): 0.305 µM
- TGI (A498 renal): 0.964 µM
- GI50 (A549 NSCLC): 0.663 µM
- TGI (A549 NSCLC): 12.2 µM
- GI50 (ACHN renal): 0.366 µM
- TGI (ACHN renal): 2.43 µM
- GI50 (BT-549 breast): 0.409 µM
- TGI (BT-549 breast): 2.59 µM
- GI50 (CAKI-1 renal): 0.441 µM
- TGI (CAKI-1 renal): 2.15 µM
- GI50 (CCRF-CEM leukemia): 0.44 µM
- TGI (CCRF-CEM leukemia): > 100 µM
- GI50 (COLO 205 colon): 0.979 µM
- TGI (COLO 205 colon): 6.2 µM
- GI50 (DU-145 prostate): 0.617 µM
- TGI (DU-145 prostate): 2.46 µM
- GI50 (EKVX NSCLC): 1.06 µM
- TGI (EKVX NSCLC): > 59 µM
- GI50 (HCC-2998 colon): 0.593 µM
- TGI (HCC-2998 colon): 1.96 µM
- GI50 (HCT-116 colon): 0.173 µM
- TGI (HCT-116 colon): 0.349 µM
- GI50 (HCT-15 colon): 1.27 µM
- TGI (HCT-15 colon): 4.94 µM
- GI50 (HL-60(TB) leukemia): 1.01 µM
- TGI (HL-60(TB) leukemia): > 100 µM
- GI50 (HOP-62 NSCLC): 0.415 µM
- TGI (HOP-62 NSCLC): 1.55 µM
- GI50 (HOP-92 NSCLC): 2.09 µM
- TGI (HOP-92 NSCLC): 6.22 µM
- GI50 (HS 578T breast): 0.308 µM
- TGI (HS 578T breast): 4.18 µM
- GI50 (HT29 colon): 0.349 µM
- TGI (HT29 colon): > 34 µM
- GI50 (IGROV1 ovarian): 0.308 µM
- TGI (IGROV1 ovarian): 4.39 µM
- GI50 (K-562 leukemia): 0.988 µM
- TGI (K-562 leukemia): > 100 µM
- GI50 (KM12 colon): 0.504 µM
- GI50 (LOX IMVI melanoma): 0.226 µM
- TGI (LOX IMVI melanoma): 0.537 µM
- GI50 (M14 melanoma): 0.244 µM
- TGI (M14 melanoma): 0.603 µM
- GI50 (MALME-3M melanoma): 0.57 µM
- TGI (MALME-3M melanoma): 4.87 µM
- GI50 (MCF7 breast): 0.546 µM
- TGI (MCF7 breast): 20.7 µM
- GI50 (MDA-MB-231 breast): 0.444 µM
- TGI (MDA-MB-231 breast): 1.91 µM
- GI50 (MDA-MB-435): 0.212 µM
- TGI (MDA-MB-435): 0.469 µM
- GI50 (MOLT-4 leukemia): 0.517 µM
- TGI (MOLT-4 leukemia): > 100 µM
- GI50 (NCI-H226 lung): 0.175 µM
- TGI (NCI-H226 lung): 0.343 µM
- GI50 (NCI-H23 lung): 0.38 µM
- TGI (NCI-H23 lung): 1.77 µM
- GI50 (NCI-H460 lung): 1.57 µM
- TGI (NCI-H460 lung): 6.28 µM
- GI50 (NCI-H522 lung): 0.662 µM
- TGI (NCI-H522 lung): 5.82 µM
- GI50 (NCI/ADR-RES ovarian): 3.96 µM
- TGI (NCI/ADR-RES ovarian): > 32.6 µM
- GI50 (OVCAR-3 ovarian): 0.361 µM
- TGI (OVCAR-3 ovarian): 4.66 µM
- GI50 (OVCAR-4 ovarian): 1.07 µM
- TGI (OVCAR-4 ovarian): > 81 µM
- GI50 (OVCAR-5 ovarian): 0.93 µM
- TGI (OVCAR-5 ovarian): 2.84 µM
- GI50 (OVCAR-8 ovarian): 1.41 µM
- TGI (OVCAR-8 ovarian): > 37.5 µM
- GI50 (PC-3 prostate): 2.37 µM
- TGI (PC-3 prostate): > 21.1 µM
- GI50 (RPMI-8226 leukemia): 0.359 µM
- GI50 (RXF 393 renal): 0.144 µM
- TGI (RXF 393 renal): 0.316 µM
- GI50 (SF-268 CNS): 0.406 µM
- TGI (SF-268 CNS): 4.17 µM
- GI50 (SF-295 CNS): 0.486 µM
- TGI (SF-295 CNS): 5.71 µM
- GI50 (SF-539 CNS): 0.268 µM
- TGI (SF-539 CNS): 2.53 µM
- GI50 (SK-MEL-2 melanoma): 0.791 µM
- TGI (SK-MEL-2 melanoma): 2.84 µM
- GI50 (SK-MEL-28 melanoma): 0.43 µM
- TGI (SK-MEL-28 melanoma): 1.61 µM
- GI50 (SK-MEL-5 melanoma): 0.432 µM
- TGI (SK-MEL-5 melanoma): 1.88 µM
- GI50 (SK-OV-3 ovarian): 1.31 µM
- TGI (SK-OV-3 ovarian): > 71.5 µM
- GI50 (SNB-19 CNS): 5.37 µM
- TGI (SNB-19 CNS): > 21.2 µM
- GI50 (SR leukemia): 0.279 µM
- TGI (SR leukemia): 1.36 µM
- GI50 (SW-620 colon): 0.298 µM
- TGI (SW-620 colon): 2.5 µM
- GI50 (T-47D breast): 0.688 µM
- GI50 (TK-10 renal): 0.332 µM
- GI50 (U251 CNS): 0.57 µM
- TGI (U251 CNS): 2.12 µM
- GI50 (UACC-257 melanoma): 0.395 µM
- TGI (UACC-257 melanoma): 1.96 µM
- GI50 (UACC-62 melanoma): 0.403 µM
- TGI (UACC-62 melanoma): 1.51 µM
- GI50 (UO-31 renal): 0.398 µM
- TGI (UO-31 renal): 1.67 µM

Source: PubChem BioAssay (NCI)
